ChEMBL document CHEMBL1153697, “Bioactive constituents of the stem bark of Mitrephora glabra” (J Nat Prod, 2009)
In brackets after ≈: the same amount, converted by molar mass. Activity calls are given as the source filed them. The rule behind the calls is not given here.

Experiments:
[1] = test system: Mycolicibacterium smegmatis; experiment: Antibacterial activity against Mycobacterium smegmatis after 3 days by broth microdilution method; assay type: functional; details: 72 h
Aspergillus niger = experiment: Antifungal activity against Aspergillus niger after 3 days by broth microdilution method; assay type: functional; details: 72 h
Saccharomyces cerevisiae = experiment: Antifungal activity against Saccharomyces cerevisiae after 3 days by broth microdilution method; assay type: functional; details: 72 h
SF-268 = experiment: Cytotoxicity against human SF268 cells after 3 days by sulforhodamine B assay; assay type: functional, cell-based; details: for IC50: SF-268, 72 h
KB = experiment: Cytotoxicity against human KB cells after 3 days by sulforhodamine B assay; assay type: functional, cell-based; details: for IC50: 72 h
Micrococcus luteus = experiment: Antibacterial activity against Micrococcus luteus after 3 days by broth microdilution method; assay type: functional; details: 72 h
NCI-H460 = experiment: Cytotoxicity against human NCI-H460 cells after 3 days by sulforhodamine B assay; assay type: functional, cell-based; details: for IC50: NCI-H460, 72 h
MCF7 = experiment: Cytotoxicity against human MCF7 cells after 3 days by sulforhodamine B assay; assay type: functional, cell-based; details: for IC50: MCF7, 72 h

| SMILES | MIC [1] | MIC (Aspergillus niger) | MIC (Saccharomyces cerevisiae) | MIC (Micrococcus luteus) | IC50 (SF-268) | IC50 (KB) | IC50 (NCI-H460) | IC50 (MCF7) | Activity (SF-268) | Activity (KB) | Activity (NCI-H460) | Activity (MCF7) |
| --- | --- | --- | --- | --- | --- | --- | --- | --- | --- | --- | --- | --- |
| C=C1C[C@@]23CC[C@H]4[C@@](C)(CCC[C@]4(C)C(=O)O)[C@@H]2CC[C@@H]1C3 | 50 µg/mL (≈ 165 µM) | 100 µg/mL (≈ 331 µM) | 50 µg/mL (≈ 165 µM) | 50 µg/mL (≈ 165 µM) | > 10 µM | > 10 µM | > 10 µM | > 10 µM |  |  |  |  |
| C=C1C[C@]2(C(=O)O)C[C@H]1CC[C@H]2[C@]1(C)CCC[C@@](C)(C(=O)OC)[C@H]1C(=O)O | 75 µg/mL (≈ 198 µM) | 150 µg/mL (≈ 396 µM) | 150 µg/mL (≈ 396 µM) | 150 µg/mL (≈ 396 µM) | > 10 µM | > 10 µM | > 10 µM | > 10 µM |  |  |  |  |
| C=CCCC#CC#CC#C/C=C/CCCC[C@@H]1C[C@@H](CO)OC1=O | 12 µg/mL (≈ 37 µM) | 12 µg/mL (≈ 37 µM) | 12 µg/mL (≈ 37 µM) | 50 µg/mL (≈ 154 µM) | 10 µM | 10 µM | 10 µM | 10 µM |  |  |  |  |
| CCCCC#CC#CC#CCCCCCCCC(=O)O | 25 µg/mL (≈ 91.8 µM) | 50 µg/mL (≈ 184 µM) | 25 µg/mL (≈ 91.8 µM) | 25 µg/mL (≈ 91.8 µM) | 10 µM | 10 µM | 10 µM | 10 µM |  |  |  |  |
| C[C@@H]1[C@H](O)[C@@H](C)/C=C/C=C/C=C/C=C/C=C/C=C/C=C/[C@H](O[C@@H]2O[C@H](C)[C@@H](O)[C@H](N)[C@@H]2O)C[C@@H]2O[C@](O)(C[C@@H](O)C[C@@H](O)[C@H](O)CC[C@@H](O)C[C@@H](O)CC(=O)O[C@H]1C)C[C@H](O)[C@H]2C(=O)O [AMPHOTERICIN B] |  | 25 µg/mL (≈ 27.1 µM) | 25 µg/mL (≈ 27.1 µM) |  |  |  |  |  |  |  |  |  |
| CC1(C)S[C@@H]2[C@H](NC(=O)[C@H](N)c3ccccc3)C(=O)N2[C@H]1C(=O)O [AMPICILLIN] |  |  |  | 0.1 µg/mL (≈ 0.286 µM) |  |  |  |  |  |  |  |  |
| O=C1c2ccccc2-c2c3c(cc4ccnc1c24)OCO3 [LIRIODENINE] | 12 µg/mL (≈ 43.6 µM) | 25 µg/mL (≈ 90.8 µM) | 12 µg/mL (≈ 43.6 µM) | 6.3 µg/mL (≈ 22.9 µM) | 5 µM | 5 µM | 5 µM | 5 µM |  |  |  |  |

Continued, in another order:

| MIC [1] | MIC (Aspergillus niger) | MIC (Saccharomyces cerevisiae) | MIC (Micrococcus luteus) | SMILES | IC50 (SF-268) | IC50 (KB) | IC50 (NCI-H460) | IC50 (MCF7) | Activity (SF-268) | Activity (KB) | Activity (NCI-H460) | Activity (MCF7) |
| --- | --- | --- | --- | --- | --- | --- | --- | --- | --- | --- | --- | --- |
| 0.2 µg/mL (≈ 0.413 µM) |  |  |  | NC[C@H]1O[C@H](O[C@H]2[C@H](O)[C@@H](O[C@H]3O[C@H](CO)[C@@H](O)[C@H](N)[C@H]3O)[C@H](N)C[C@@H]2N)[C@H](O)[C@@H](O)[C@@H]1O [KANAMYCIN] |  |  |  |  |  |  |  |  |
| 12 µg/mL (≈ 42.2 µM) | 25 µg/mL (≈ 87.9 µM) | 25 µg/mL (≈ 87.9 µM) | 50 µg/mL (≈ 176 µM) | C=CCCC#CC#CC#CCCCCCCCC(=O)OC [METHYLOROPHEATE] |  |  |  |  | inactive | inactive | inactive | inactive |
| 38 µg/mL (≈ 121 µM) | 38 µg/mL (≈ 121 µM) | 38 µg/mL (≈ 121 µM) | 150 µg/mL (≈ 477 µM) | C=C1C[C@]23C[C@H]1CC[C@H]2[C@]1(C)CCC[C@@]2(C)C(=O)O[C@@H](C3=O)[C@@H]12 [MITREKAURENONE] | > 10 µM | > 10 µM | > 10 µM | > 10 µM |  |  |  |  |
| 94 µg/mL (≈ 348 µM) | 188 µg/mL (≈ 695 µM) | 47 µg/mL (≈ 174 µM) | 94 µg/mL (≈ 348 µM) | C=CCCC#CC#CC#CCCCCCCCC(=O)O [OROPHEIC ACID] | 10 µM | 10 µM | 10 µM | 10 µM |  |  |  |  |
| 31 µg/mL (≈ 95 µM) | 250 µg/mL (≈ 766 µM) | 63 µg/mL (≈ 193 µM) | 125 µg/mL (≈ 383 µM) | C=CCCC#CC#CC#CCCCCCC[C@@H]1C[C@@H](CO)OC1=O [OROPHEOLIDE] | 10 µM | 10 µM | 10 µM | 10 µM |  |  |  |  |
